Data on 24 molecules can be found in patent US5071875A (Northwestern University, priority 1989, dated 1991).

Assay [1] has as its target T1, melatonin receptor (Oryctolagus cuniculus, UniProt G1SUP2).
T1 construct: Typically, the rabbit retina tissues preincubation with [^3 H]-dopamine for 10 minutes; from tissue; host or cells: rabbit retina (superfused retinal tissue)
T1 sequence (G1SUP2 1-362): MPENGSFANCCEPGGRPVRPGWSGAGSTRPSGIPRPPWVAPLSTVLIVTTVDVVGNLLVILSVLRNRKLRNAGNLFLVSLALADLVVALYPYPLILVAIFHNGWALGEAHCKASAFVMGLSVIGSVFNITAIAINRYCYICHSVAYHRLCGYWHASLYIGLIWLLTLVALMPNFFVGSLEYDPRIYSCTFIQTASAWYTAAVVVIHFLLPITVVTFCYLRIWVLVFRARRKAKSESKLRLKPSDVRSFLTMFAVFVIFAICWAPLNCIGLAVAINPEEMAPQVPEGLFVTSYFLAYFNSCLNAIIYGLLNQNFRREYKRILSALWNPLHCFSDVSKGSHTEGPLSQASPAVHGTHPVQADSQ
Kind of assay: Inhibition of calcium-dependent [3H]dopamine release from rabbit retina (melatonin agonist assay). Format: cell-based. The following applies: for inhibition at 1 µM: 1 μM concentration of test compound, read-out: % Maximal Inhibition of [3H]dopamine release; for IC50: compound added before S2, S-sulpiride 0.1 μM present. Here is the method:
Accordingly, all experiments were run in the presence of S-sulpiride (0.1 μM) to block D-2 dopamine autoreceptors present in the dopamine amacrine cells of retina.
Thus, the lower the IC50, the greater the agonistic activity.
Assays were performed as described in Dubocovich, J. Pharm. […] Retinal tissues are incubated for 10 min at 37° C. in the presence of 0.1 μM [^3 H]dopamine. The tissue was then washed in Krebs' solution at 37° C. and transferred to individual cylindrical plastic tubes having a thin nylon mesh on the bottom. These plastic tubes were then transferred to individual glass superfusion chambers containing platinum electrodes 30 mm apart. The tissue samples are superfused with Krebs' solution, starting at time equal zero until a leveling off of the spontaneous release of radioactivity occurred (about 60 mins). A time equal 60 mins S1 is applied.
Tritium release, i.e., release of [^3 H]dopamine, was elicited by field stimulation at 3 Hz, 20 mA, 2 msec duration. Field stimulations were applied in each experiment at either 60 (S1) or 100 (S2), min after the end of the incubation with [^3 H]dopamine. Samples of the superfusate were collected before, during, and after the period of stimulation. At the end of each experiment, the retinal tissue contained in each chamber was solubilized and the tritium content remaining in the retinal tissue was determined by liquid scintillaton counting. [drawing 8]
The inhibition of [^3 H]dopamine overflow (the percentage of total tissue radioactivity released by field stimulation above the spontaneous release levels, expressed as the ratio S2 /S1) is plotted as a function of the molar concentrations of the test compound (logarithmic scale).

In assay [2] the target is melatonin receptor. The experiment in a line: Inhibition of 2-[125I]iodomelatonin binding to chicken retinal membranes. Particulars: for IC50: read-out: IC50, inhibition of 2-[125I]iodomelatonin binding to chicken retinal membranes, 0° C., 5 hr, in the dark. Here is the method: Dubocovich, et al., Proc. Nat'l.
The compounds to be tested were dissolved in 1 mM HCl with 0.1% bovine serum albumin. Binding was initiated by addition of 220-μl aliquots of retinal membranes resuspended in the Tris-HCl buffer to tubes containing 20 μl of test compound or vehicle, and radioligand. […] Reactions were terminated by addition of 5 ml of ice-cold Tris-HCl buffer, and the contents were immediately filtered through glass-fiber filters (Schleicher & Schuell no. 30) soaked in 0.5% (vol/vol) polyethylenimine solution. Each filter was washed twice with 5 ml of the cold buffer. Radioactivity was determined in a gamma counter.

The target in assay [3] is T1, melatonin receptor. Particulars: cited from earlier work.
Assay [4] concerns the target T1, melatonin receptor. The following applies: cited from earlier work. This is another data set of the same source.
Assay [5] addresses T1, melatonin receptor. Kind of assay: Antagonism of melatonin-induced inhibition of [3H]dopamine release from rabbit retina. The class given is cell-based. Particulars: for shift of the melatonin concentration effect curve: 0.1 μM and 1 μM of test compound, compared with melatonin alone.
Procedure: In this example, the test compound is added before the first period of electrical stimulation (S1) and remains present until the end of the experiment.
Typically, the rabbit retina tissues preincubation with [^3 H]-dopamine for 10 minutes is followed by a superfusion with Krebs solution at time equal zero. At time equal 20 minutes the test compound of interest is added. At time equal 60 minutes S1 is applied.
The ratio S2 /S1 can be plotted as a function of the molar concentrations of the test compound used (logarithmic scale).
The test system of a further assay is frog skin. The following applies: cited from earlier work.
Assay [6] concerns melatonin receptor. The following applies: cited from earlier work.
[7] abbreviates: test compound 0.1 μM, melatonin 1 nM.
Where [8] appears, read: test compound 0.1 μM, melatonin 10 nM.
The mark [9] stands for this setting: test compound 1 μM, melatonin 1 nM.
The mark [10] stands for this setting: test compound 1 μM, melatonin 10 nM.

By inhibition is commonly meant the relative decrease from the control value, in per cent. As a reminder, the IC50 is the point on the concentration scale where inhibition reaches its midpoint. In the case of `O=C(CCl)NC1Cc2ccccc2C(Cc2ccccc2)C1` (stereo not shown) [AH 029, 4-benzyl-2-chloroacetamido-tetralin], on melatonin receptor [1], the inhibition at 1 µM turned out to be 70% and the IC50 turned out to be 10 nM.
Take `COc1cccc2c1CC(NC(=O)C(C)C)CC2` (stereo not shown) [AH 014, 8-methoxy-2-iso-butyramido-tetralin]: on melatonin receptor [1], the inhibition at 1 µM was found to be 80% and the half-inhibitory concentration (IC50) turned out to be 7.94 nM. The IC50 on melatonin receptor [2] is 4620 nM.
In the case of `COc1cccc2c1CC(NC(=O)C1CC1)CC2` (stereo not shown) [AH 015, 8-methoxy-2-cyclopropanecarbonylamido-tetralin], at melatonin receptor [1], the “melatonin agonist activity (in words)” value was “melatonin agonists”, the inhibition at 1 µM was 80% and the half-maximal inhibitory concentration (IC50) was determined as 2.51 nM. Moreover, the IC50 on melatonin receptor [2] turned out to be 2940 nM.
As to `O=C(NC1CCc2ccccc2C1)c1ccccc1` (stereo not shown) [AH 019, 2-benzoylamido-tetralin], on melatonin receptor [2], the IC50 was > 10000 nM.
Consider `CC(=O)NCCc1c(Cc2ccccc2)[nH]c2ccccc12` [Luzindole, 2-benzyl-N-acetyltryptamine], for which, at melatonin receptor [3] (concentrations up to 10 μM, compound alone), the “effect on spontaneous outflow and calcium-dependent release of [3H]dopamine” value is given as “does not modify”. Also, on melatonin receptor [4], the “antagonism of the ability of melatonin to inhibit [3H]dopamine release” value was “antagonize the ability of melatonin to inhibit [^3 H]dopamine release in a competitive fashion”.
In the case of `CC(=O)NC1Cc2ccccc2C(Cc2ccccc2)C1` (stereo not shown) [AH 025, 4-benzyl-2-acetamidotetralin], on melatonin receptor [1], the “melatonin agonist activity (in words)” value is “melatonin agonists”, the inhibition at 1 µM came out at 70% and the IC50 was 4 nM. Besides, in the assay on melatonin receptor [2], the “activity in competitively inhibiting the binding of 2-[125I]iodomelatonin to the melatonin binding site (in words)” value is “high activity” and the IC50 is 400 nM.
As to `COc1ccc2c(c1)CC(NC(C)=O)CC2` (stereo not shown) [AH 008, 7-methoxy-2-acetamido-tetralin], the IC50 on melatonin receptor [2] was > 10000 nM.
With `CCC(=O)NC1CCc2cccc(OC)c2C1` (stereo not shown) [AH 002, 8-methoxy-2-propionamidotetralin], in the assay on melatonin receptor [2], the “activity in competitively inhibiting the binding of 2-[125I]iodomelatonin to the melatonin binding site (in words)” value is on record as “high activity”.
Turning to `CCC(=O)NC1CCc2ccccc2C1` (stereo not shown) [AH 006, 2-propionamido-tetralin], the inhibition at 1 µM on melatonin receptor [1] worked out at 70%. Further, the results for the IC50 on melatonin receptor [1] and on melatonin receptor [2] were 8.13 nM and 13000 nM, respectively.
With `CC(=O)NC1CCc2ccccc2C1` (stereo not shown) [AH 005, 2-acetamidotetralin], at melatonin receptor [1], the inhibition at 1 µM worked out at 50% and the IC50 is 52.2 nM. On melatonin receptor [2], the IC50 was 20000 nM.
Regarding `CCC(=O)NC1Cc2ccccc2C(c2ccccc2)C1` (stereo not shown) [AH 024, 4-phenyl-2-propionamido-tetralin], the IC50 at melatonin receptor [1] is > 1000 nM; at melatonin receptor [2] it was 250 nM. In addition, in the assay on melatonin receptor [2], the “activity in competitively inhibiting the binding of 2-[125I]iodomelatonin to the melatonin binding site (in words)” value was “high activity”. Further, the “antagonism of melatonin-induced inhibition of [3H]dopamine release (in words)” value on melatonin receptor [5] is “antagonize the melatonin-induced inhibition of [^3 H]dopamine release”. Besides, the “shift of the melatonin concentration effect curve” value on melatonin receptor [5] is given as “shift to the right”. Besides, the S2/S1 at melatonin receptor [5] (test compound 0.1 μM, melatonin 0.1 nM) is reported as 1.01 ± 0.07; at melatonin receptor [5] (setting [7]) it was 0.76 ± 0.01; on melatonin receptor [5] (setting [8]), 0.25 ± 0.01; on melatonin receptor [5] (setting [9]), 0.91 ± 0.06; at melatonin receptor [5] (setting [10]) it was 0.61 ± 0.01.
Consider `O=C(CCl)NC1CCc2ccccc2C1` (stereo not shown) [AH 011, 2-chloroacetamido-tetralin], for which, on melatonin receptor [1], the inhibition at 1 µM was determined as 80% and the concentration for half-maximal inhibition (IC50) was found to be 1.3 nM.
For `CC(=O)NC1CC(Cc2ccccc2)c2ccccc2C1=O` (stereo not shown) [AH 028, 2-Acetamido-4-benzyl-1-tetralone], at melatonin receptor [1], the inhibition at 1 µM was determined as 60%. For the same molecule, the values for the IC50 on melatonin receptor [1] and on melatonin receptor [2] were 16 nM and 25000 nM, respectively.
As for `CC(=O)NC1Cc2ccccc2C(c2ccccc2)C1` (stereo not shown) [AH 023, 4-phenyl-2-acetamidotetralin], the IC50 at melatonin receptor [1] was > 1000 nM; on melatonin receptor [2], 630 nM. In the assay with melatonin receptor [2], the “activity in competitively inhibiting the binding of 2-[125I]iodomelatonin to the melatonin binding site (in words)” value is recorded as “high activity”. In addition, the “antagonism of melatonin-induced inhibition of [3H]dopamine release (in words)” value on melatonin receptor [5] was “antagonize the melatonin-induced inhibition of [^3 H]dopamine release”. Besides, on melatonin receptor [5], the “shift of the melatonin concentration effect curve” value is recorded as “shift to the right”. In addition, the S2/S1 on melatonin receptor [5] (test compound 0.01 μM, melatonin 0.1 nM) was 0.69 ± 0.11; on melatonin receptor [5] (test compound 0.01 μM, melatonin 1 nM), 0.30 ± 0.04; on melatonin receptor [5] (setting [7]) it was 0.73 ± 0.04; at melatonin receptor [5] (setting [8]), 0.37 ± 0.06; on melatonin receptor [5] (test compound 1 μM, melatonin 0.1 nM) it was 1.02 ± 0.03; at melatonin receptor [5] (setting [9]) it was 0.92 ± 0.07. The same molecule had an S2/S1 at melatonin receptor [5] (setting [10]) of 0.69 ± 0.03.
Regarding `CCC(=O)NC1Cc2ccccc2C(Cc2ccccc2)C1` (stereo not shown) [AH 027, 4-benzyl-2-propionamido-tetralin], on melatonin receptor [1], the “melatonin agonist activity (in words)” value is “melatonin agonists”, the inhibition at 1 µM was 65% and the IC50 amounted to 13 nM. In the assay on melatonin receptor [2], the “activity in competitively inhibiting the binding of 2-[125I]iodomelatonin to the melatonin binding site (in words)” value was “high activity” and the IC50 came to 790 nM.
With `O=C(CCl)NC1Cc2ccccc2C(c2ccccc2)C1` (stereo not shown) [AH 026, 4-phenyl-2-chloroacetamido-tetralin], the IC50 at melatonin receptor [1] was > 1000 nM.
`CCCC(=O)NC1CCc2ccccc2C1` (stereo not shown) [AH 020, 2-butyramido-tetralin]: the IC50 at melatonin receptor [2] was determined as 2910 nM.
For the molecule `CC(=O)NCCc1c[nH]c2ccccc12` [N-acetyltryptamine], the “melatonin receptor activity in rabbit retina (in words)” value on melatonin receptor [3] was “partial melatonin agonist”. In addition, the “effect on melatonin-induced lightening of α-MSH-induced darkening of frog skin” value in the assay with frog skin is listed as “antagonize the melatonin-induced lightening”. Also, in the assay with melatonin receptor [6], the “melatonin receptor activity in chicken retina (in words)” value was “competitive melatonin receptor antagonist”.
With `CCCC(=O)NC1CCc2cccc(OC)c2C1` (stereo not shown) [AH 013, 8-methoxy-2-n-butyramidotetralin], at melatonin receptor [1], the “melatonin agonist activity (in words)” value is given as “melatonin agonists”, the inhibition at 1 µM is 80% and the IC50 stood at 1.18 nM. Moreover, in the assay on melatonin receptor [2], the “activity in competitively inhibiting the binding of 2-[125I]iodomelatonin to the melatonin binding site (in words)” value is reported as “high activity” and the half-inhibitory concentration (IC50) was 257 nM.
As to `COc1cccc2c1CC(NC(=O)Cc1ccccc1)CC2` (stereo not shown) [AH 016, 8-methoxy-2-phenylacetamido-tetralin], on melatonin receptor [1], the inhibition at 1 µM was 0% and the IC50 is > 1000 nM.
Consider `COc1cccc2c1CC(NC(=O)CCl)CC2` (stereo not shown) [AH 017, 8-methoxy-2-chloroacetamidotetralin], for which, at melatonin receptor [1], the inhibition at 1 µM was 75% and the IC50 turned out to be 0.063 nM.
Consider `COc1cccc2c1CC(NC(C)=O)CC2` (stereo not shown) [AH 001, 8-methoxy 2-acetamido-tetralin], for which the “activity in competitively inhibiting the binding of 2-[125I]iodomelatonin to the melatonin binding site (in words)” value with melatonin receptor [2] was “high activity”.
On to `COc1cccc2c1CC(NC(=O)c1ccccc1)CC2` (stereo not shown) [AH 007, 8-methoxy-2-benzoylamido-tetralin], for which, on melatonin receptor [1], the inhibition at 1 µM was 40% and the IC50 was found to be 10 nM. Also, the IC50 at melatonin receptor [2] is > 10000 nM.
Consider `COc1cccc2c1CCC(NC(C)=O)C2` (stereo not shown) [AH 018, 5-methoxy-2-acetamido-tetralin], for which the IC50 on melatonin receptor [2] stood at 16000 nM.
